Experimental data reported in ChEMBL document CHEMBL2390816, “Structure-based optimization of oxadiazole-based GSK-3 inhibitors” (Eur J Med Chem, 2013).

Tests used:
[1] = biological target: Casein kinase I isoform epsilon (Homo sapiens, UniProt P49674); assay: Inhibition of human recombinant CK1epsilon by FRET assay
[2] = biological target: Protein kinase C alpha type (Homo sapiens, UniProt P17252); assay: Inhibition of human recombinant PKCalpha by FRET assay
[3] = biological target: T1, Aurora kinase A (Homo sapiens, UniProt O14965); assay: Inhibition of human recombinant AURKA by FRET assay
T1 sequence (O14965 whole entry): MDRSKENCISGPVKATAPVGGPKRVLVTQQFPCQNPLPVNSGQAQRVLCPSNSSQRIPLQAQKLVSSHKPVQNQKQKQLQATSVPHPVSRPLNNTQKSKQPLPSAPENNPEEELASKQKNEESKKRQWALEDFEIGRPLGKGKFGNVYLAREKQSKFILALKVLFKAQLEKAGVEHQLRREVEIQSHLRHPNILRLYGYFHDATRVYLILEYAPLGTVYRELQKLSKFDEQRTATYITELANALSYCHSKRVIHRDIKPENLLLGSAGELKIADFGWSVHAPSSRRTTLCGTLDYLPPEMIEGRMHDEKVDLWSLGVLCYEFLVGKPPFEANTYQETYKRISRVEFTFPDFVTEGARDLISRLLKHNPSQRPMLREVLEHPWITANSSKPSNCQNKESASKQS

[4] = biological target: Glycogen synthase kinase-3 alpha (Homo sapiens, UniProt P49840); assay: Inhibition of human recombinant GSK3alpha by FRET assay
Glycogen synthase kinase-3 alpha, sequence (P49840 whole entry): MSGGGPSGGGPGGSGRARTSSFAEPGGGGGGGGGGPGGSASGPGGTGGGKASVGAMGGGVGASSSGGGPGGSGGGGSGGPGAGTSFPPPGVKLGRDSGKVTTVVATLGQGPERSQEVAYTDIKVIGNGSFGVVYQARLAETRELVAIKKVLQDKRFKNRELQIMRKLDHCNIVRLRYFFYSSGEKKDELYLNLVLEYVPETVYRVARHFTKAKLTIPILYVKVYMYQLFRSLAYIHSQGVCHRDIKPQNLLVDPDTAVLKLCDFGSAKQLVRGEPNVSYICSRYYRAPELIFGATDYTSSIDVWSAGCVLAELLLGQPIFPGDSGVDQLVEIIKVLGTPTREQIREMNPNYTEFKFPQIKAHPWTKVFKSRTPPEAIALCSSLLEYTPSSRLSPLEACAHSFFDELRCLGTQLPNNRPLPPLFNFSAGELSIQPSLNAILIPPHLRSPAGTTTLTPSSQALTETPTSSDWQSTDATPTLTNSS

[5] = biological target: Glycogen synthase kinase-3 beta (Homo sapiens, UniProt P49841); assay: Inhibition of human recombinant GSK3beta by FRET assay
Glycogen synthase kinase-3 beta, sequence (P49841 whole entry): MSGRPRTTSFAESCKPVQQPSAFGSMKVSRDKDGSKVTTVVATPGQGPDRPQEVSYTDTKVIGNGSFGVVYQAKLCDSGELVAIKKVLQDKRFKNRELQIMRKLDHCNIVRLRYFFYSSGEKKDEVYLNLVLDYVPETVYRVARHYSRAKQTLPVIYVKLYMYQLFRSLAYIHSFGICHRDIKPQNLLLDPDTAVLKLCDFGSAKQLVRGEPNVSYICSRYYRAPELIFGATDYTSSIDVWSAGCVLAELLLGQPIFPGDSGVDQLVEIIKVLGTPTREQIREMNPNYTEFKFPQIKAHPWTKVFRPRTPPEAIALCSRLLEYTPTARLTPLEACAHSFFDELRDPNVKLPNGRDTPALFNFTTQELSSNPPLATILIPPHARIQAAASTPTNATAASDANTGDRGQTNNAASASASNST

[6] = biological target: Cyclin-dependent kinase 5 (Homo sapiens, UniProt Q00535); assay: Inhibition of human recombinant Cdk5/p35 by FRET assay
Cyclin-dependent kinase 5, sequence (Q00535 whole entry): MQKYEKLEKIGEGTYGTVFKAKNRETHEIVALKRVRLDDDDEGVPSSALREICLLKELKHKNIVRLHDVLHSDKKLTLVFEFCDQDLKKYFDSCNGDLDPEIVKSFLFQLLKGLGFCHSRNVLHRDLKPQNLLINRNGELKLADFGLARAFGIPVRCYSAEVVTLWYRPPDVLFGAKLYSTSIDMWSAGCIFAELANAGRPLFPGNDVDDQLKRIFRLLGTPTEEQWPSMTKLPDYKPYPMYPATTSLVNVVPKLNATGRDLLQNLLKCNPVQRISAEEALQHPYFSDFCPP

[7] = organism: Danio rerio; assay: Toxicity in wild type zebra fish embryo up to 30 uM; assay type: organism-based; conditions: zebrafish, in vivo

Casein kinase I isoform epsilon, sequence (P49674 whole entry, canonical isoform): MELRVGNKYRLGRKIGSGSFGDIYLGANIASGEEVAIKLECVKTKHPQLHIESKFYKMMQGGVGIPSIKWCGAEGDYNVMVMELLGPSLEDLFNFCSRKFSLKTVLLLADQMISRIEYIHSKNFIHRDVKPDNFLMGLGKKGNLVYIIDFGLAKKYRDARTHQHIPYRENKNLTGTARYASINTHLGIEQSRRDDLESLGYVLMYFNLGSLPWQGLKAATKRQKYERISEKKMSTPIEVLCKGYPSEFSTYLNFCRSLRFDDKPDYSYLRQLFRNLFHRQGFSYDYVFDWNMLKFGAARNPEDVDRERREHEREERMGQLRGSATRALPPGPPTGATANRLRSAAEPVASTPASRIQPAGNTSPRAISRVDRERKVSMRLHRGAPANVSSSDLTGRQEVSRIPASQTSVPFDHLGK

SMILES | IC50 [1] | IC50 [2] | IC50 [3] | IC50 [4] | IC50 [5] | IC50 [6] | Activity [7]
CC(=O)Nc1cc(-c2nnc(SCc3ccccc3)o2)ccn1 | > 100 µM | > 100 µM | 60 µM | 20 nM | 35 nM | > 100 µM | 
N#Cc1cccc(-c2ccc(CSc3nnc(-c4ccc5c(c4)OCCO5)o3)cc2)c1 | > 100 µM | > 100 µM | > 100 µM | 9 nM | 225 nM | > 100 µM | 
O=[N+]([O-])c1ccccc1-c1ccc(CSc2nnc(-c3ccncc3)o2)cc1 | > 100 µM | > 100 µM | 5 µM | 27 nM | 164 nM | > 100 µM | 
COc1ccc(-c2ccc(CSc3nnc(-c4ccc5c(c4)OCCO5)o3)cc2)cc1 | > 100 µM | > 100 µM | > 100 µM | 19 nM | 127 nM | > 100 µM | 
N#Cc1cc(F)ccc1-c1ccc(CSc2nnc(-c3ccncc3)o2)cc1 | > 100 µM | > 100 µM | > 100 µM | 324 nM | 56 nM | > 100 µM | 
O=[N+]([O-])c1ccccc1-c1ccc(CSc2nnc(-c3ccc4c(c3)OCCO4)o2)cc1 | > 100 µM | > 100 µM | > 100 µM | 4 nM | 90 nM | > 100 µM | 
COc1ccc(-c2ccc(CSc3nnc(-c4ccc5c(c4)OCCO5)o3)cc2)c(C#N)c1 | > 100 µM | > 100 µM | > 100 µM | 5 nM | 32 nM | > 100 µM | 
O=[N+]([O-])c1cccc(-c2ccc(CSc3nnc(-c4ccc5c(c4)OCCO5)o3)cc2)c1 | > 100 µM | > 100 µM | > 100 µM | 15 nM | 164 nM | > 100 µM | 
O=[N+]([O-])c1ccccc1-c1ccc(CSc2nnc(-c3ccc4c(c3)OCO4)o2)cc1 | > 100 µM | > 100 µM | > 100 µM | 3 nM | 27 nM | > 100 µM | 
N#Cc1cccc(-c2ccc(CSc3nnc(-c4ccncc4)o3)cc2)c1 | > 100 µM | > 100 µM | 60 µM | 46 nM | 84 nM | > 100 µM | 
CC(=O)Nc1cc(-c2nnc(SCc3ccc(-c4ccccc4C#N)cc3)o2)ccn1 | > 100 µM | > 100 µM | > 100 µM | 2 nM | 17 nM | > 100 µM | Non-toxic
N#Cc1cccc(-c2ccc(CSc3nnc(-c4ccc5c(c4)OCO5)o3)cc2)c1 | > 100 µM | > 100 µM | > 100 µM | 4 nM | 29 nM | > 100 µM | 
N#Cc1ccc(-c2ccc(CSc3nnc(-c4ccc5c(c4)OCCO5)o3)cc2)cc1 | > 100 µM | > 100 µM | 50 µM | 195 nM | 2000 nM | > 100 µM | 
CC(=O)Nc1cc(-c2nnc(SCc3cccc(C#N)c3)o2)ccn1 | > 100 µM | > 100 µM | > 100 µM | 17 nM | 19 nM | > 100 µM | 
c1ccc(-c2ccc(CSc3nnc(-c4ccncc4)o3)cc2)cc1 | > 100 µM | > 100 µM | > 100 µM | 52 nM | 83 nM | > 100 µM | 
Fc1cc(F)cc(-c2ccc(CSc3nnc(-c4ccc5c(c4)OCO5)o3)cc2)c1 | 80 µM | > 100 µM | > 100 µM | 51 nM | 195 nM | > 100 µM | 
Fc1cc(F)cc(-c2ccc(CSc3nnc(-c4ccc5c(c4)OCCO5)o3)cc2)c1 | > 100 µM | > 100 µM | > 100 µM | 35 nM | 966 nM | > 100 µM | 
COc1ccc(-c2ccc(CSc3nnc(-c4ccncc4)o3)cc2)cc1 | > 100 µM | > 100 µM | > 100 µM | 240 nM | 176 nM | > 100 µM | 
N#Cc1ccc(-c2ccc(CSc3nnc(-c4ccncc4)o3)cc2)cc1 | > 100 µM | > 100 µM | > 100 µM | 77 nM | 153 nM | > 100 µM | 
COc1ccc(-c2ccc(CSc3nnc(-c4ccc5c(c4)OCO5)o3)cc2)cc1 | 20 µM | > 100 µM | 40 µM | 7 nM | 75 nM | > 100 µM | 
c1ccc(-c2ccc(CSc3nnc(-c4ccc5c(c4)OCCO5)o3)cc2)cc1 | > 100 µM | > 100 µM | > 100 µM | 51 nM | 234 nM | > 100 µM | 
O=[N+]([O-])c1cccc(-c2ccc(CSc3nnc(-c4ccc5c(c4)OCO5)o3)cc2)c1 | > 100 µM | > 100 µM | > 100 µM | 15 nM | 86 nM | > 100 µM | 
COc1ccc(-c2ccc(CSc3nnc(-c4ccc5c(c4)OCO5)o3)cc2)c(C#N)c1 | 50 µM | > 100 µM | 45 µM | 5 nM | 14 nM | > 100 µM | Non-toxic
